What was measured:
Assay in all cases: relative viability (nuclei count vs DMSO), 5 days (fraction); higher = more cells survive
CX-5461 + Lapatinib = compound: Cc1cnc(CNC(=O)c2c(=O)c3ccc(N4CCCN(C)CC4)nc3n3c2sc2ccccc23)cn1 [CX-5461] + CS(=O)(=O)CCNCc1ccc(-c2ccc3ncnc(Nc4ccc(OCc5cccc(F)c5)c(Cl)c4)c3c2)o1 [Lapatinib] (partner 2 µM)
Method in brief: (§1)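 Relative viability is defined as nuclei in treated wells over nuclei in vehicle wells. Duplicate plates were run and medians reported. Lung cancer cell lines in 1536-well plates were dosed by pin tool one day after seeding, with one drug or with a fixed anchor-drug dose plus five library-drug doses (not always all listed) in √10 steps, and nuclei were counted after 5 days.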

CX-5461 + Olaparib = compound: Cc1cnc(CNC(=O)c2c(=O)c3ccc(N4CCCN(C)CC4)nc3n3c2sc2ccccc23)cn1 [CX-5461] + O=C(c1cc(Cc2n[nH]c(=O)c3ccccc23)ccc1F)N1CCN(C(=O)C2CC2)CC1 [Olaparib] (partner 8 µM)
Method in brief: as §1

IMD-0354 + Tozasertib = compound: O=C(Nc1cc(C(F)(F)F)cc(C(F)(F)F)c1)c1cc(Cl)ccc1O [IMD-0354] + Cc1cc(Nc2cc(N3CCN(C)CC3)nc(Sc3ccc(NC(=O)C4CC4)cc3)n2)n[nH]1 [Tozasertib] (partner 0.1 µM)
Method in brief: as §1

IMD-0354 + Decitabine = compound: O=C(Nc1cc(C(F)(F)F)cc(C(F)(F)F)c1)c1cc(Cl)ccc1O [IMD-0354] + Nc1ncn([C@H]2C[C@H](O)[C@@H](CO)O2)c(=O)n1 [Decitabine] (partner 2 µM)
Method in brief: as §1

| Cell Line | relative viability (CX-5461 + Lapatinib; first compound 0.01 µM) | relative viability (CX-5461 + Lapatinib; first compound 0.03162 µM) | relative viability (CX-5461 + Lapatinib; first compound 0.3162 µM) | relative viability (CX-5461 + Lapatinib; first compound 1 µM) | relative viability (CX-5461 + Olaparib; first compound 0.01 µM) | relative viability (CX-5461 + Olaparib; first compound 0.03162 µM) | relative viability (CX-5461 + Olaparib; first compound 0.1 µM) | relative viability (CX-5461 + Olaparib; first compound 0.3162 µM) | relative viability (CX-5461 + Olaparib; first compound 1 µM) | relative viability (IMD-0354 + Tozasertib; first compound 0.04 µM) | relative viability (IMD-0354 + Tozasertib; first compound 0.1265 µM) | relative viability (IMD-0354 + Tozasertib; first compound 0.4 µM) | relative viability (IMD-0354 + Tozasertib; first compound 1.265 µM) | relative viability (IMD-0354 + Tozasertib; first compound 4 µM) | relative viability (IMD-0354 + Decitabine; first compound 0.04 µM) | relative viability (IMD-0354 + Decitabine; first compound 0.1265 µM) | relative viability (IMD-0354 + Decitabine; first compound 0.4 µM) | relative viability (IMD-0354 + Decitabine; first compound 1.265 µM) | relative viability (IMD-0354 + Decitabine; first compound 4 µM) | relative viability (CX-5461 + Lapatinib; first compound 0.1 µM) |
| --- | --- | --- | --- | --- | --- | --- | --- | --- | --- | --- | --- | --- | --- | --- | --- | --- | --- | --- | --- | --- |
| NCI-H1437 | 0.779 | 0.869 | 0.519 | 0.528 | 0.654 | 0.643 | 0.528 | 0.648 | 0.567 | 0.457 | 0.394 | 0.289 | 0.262 | 0.224 | 0.635 | 0.538 | 0.34 | 0.257 | 0.229 |  |
| NCI-H1650 | 0.714 | 0.714 | 0.229 | 0.19 | 0.718 | 0.819 | 0.642 | 0.756 | 0.257 | 0.47 | 0.362 | 0.253 | 0.259 | 0.19 | 0.378 | 0.455 | 0.285 | 0.203 | 0.129 |  |
| NCI-H1651 |  | 0.482 | 0.714 | 0.117 | 0.188 | 0.175 | 0.191 | 0.163 | 0.159 | 0.662 | 0.658 | 0.317 | 0.363 | 0.0982 | 0.667 | 0.638 | 0.528 | 0.156 | 0.147 |  |
| NCI-H1666 | 0.733 | 0.637 | 0.55 | 0.398 | 0.708 | 0.731 | 0.748 | 0.696 | 0.676 | 0.672 | 0.587 | 0.488 | 0.369 | 0.309 | 0.718 | 0.751 | 0.716 | 0.531 | 0.393 |  |
| NCI-H1734 | 1.08 | 1.12 | 0.553 | 0.523 | 0.662 | 0.67 | 0.633 | 0.553 | 0.511 | 0.267 | 0.267 | 0.265 | 0.231 | 0.117 | 0.513 | 0.491 | 0.467 | 0.389 | 0.213 | 0.951 |
| NCI-H1755 | 1.05 | 1.03 | 0.531 | 0.972 | 0.85 | 0.929 | 0.819 | 0.806 | 0.818 | 0.566 | 0.627 | 0.435 | 0.407 | 0.294 | 0.798 | 0.741 | 0.671 | 0.644 | 0.316 | 1.06 |
| NCI-H1793 | 0.693 | 0.628 | 0.399 | 0.643 | 1.09 | 1 | 0.879 | 0.937 | 0.792 | 0.405 | 0.321 | 0.233 | 0.15 | 0.191 | 0.583 | 0.438 | 0.335 | 0.098 | 0.262 | 0.819 |

From the supplement of paper PMC10307832
